Drawing on PubChem BioAssay (NCI), this text covers GI50 and TGI for 13 compounds.

Among the test systems are 786-0 renal; HT29 colon; SNB-75 CNS; SK-MEL-2 melanoma; SF-539 CNS; PC-3 prostate; OVCAR-3 ovarian; SK-OV-3 ovarian; HOP-92 NSCLC; HL-60(TB) leukemia.
What all share (experiment): inhibition of tumour cell growth, NCI panel, 48 h

“And” between values parts separate entries of the source, which are not always exact repeats. Identical values can stand only once.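 Protocol summary: plate cells (96-well), add compound at 5 concentrations, incubate 48 h, interpolate endpoints linearly. GI50 marks 50% less growth. TGI marks complete inhibition of growth.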

Regarding `CC(=O)C1CC2(c3ccc(C)cc3)C(c3ccc(C)cc3)=C(c3ccc(C)cc3)C1(c1ccc(C)cc1)S2=O` (stereo unspecified), the GI50 in the assay with 786-0 renal, in the assay with HT29 colon, in the assay with SNB-75 CNS, in the assay with SK-MEL-2 melanoma, with SF-539 CNS and in the assay on PC-3 prostate was above 100 µM each time. In addition, the GI50 in the assay on OVCAR-3 ovarian and with SK-OV-3 ovarian was above 100 µM throughout. The TGI in the assay with 786-0 renal, in the assay with HT29 colon, in the assay on SNB-75 CNS, in the assay on SK-MEL-2 melanoma, in the assay with SF-539 CNS and in the assay on PC-3 prostate was above 100 µM each time. For the same compound, the TGI in the assay on OVCAR-3 ovarian and with SK-OV-3 ovarian was above 100 µM each time.

Regarding `CC(=O)OCC1OC(OC2CC3C(C)(C)C(OC(C)=O)CC[C@]3(C)C3CCC45CC4(CC[C@H]5C(C)CC(O)[C@@H](O)C(C)(C)O)[C@]23C)C(O)C(O)C1O` (stereo partly specified), the TGI was 14.2 µM and 21.9 µM in the assay on 786-0 renal; 13.1 µM and 11.7 µM in the assay with HOP-92 NSCLC; 14.3 µM and 10.6 µM in the assay with HT29 colon; 12 µM and 16.8 µM in the assay on SNB-75 CNS; 11.9 µM and 5.3 µM with HL-60(TB) leukemia; 16.8 µM and 7.36 µM in the assay on SK-MEL-2 melanoma. Further, the TGI in the assay on SF-539 CNS is 13.5 µM and 18.9 µM; with OVCAR-3 ovarian, 13.3 µM and 19.3 µM; with SK-OV-3 ovarian, 11.6 µM and 24.8 µM. Further, the GI50 with HOP-92 NSCLC is 4.05 µM; with HT29 colon it was 3.37 µM; in the assay on SNB-75 CNS it was 5.04 µM; in the assay on HL-60(TB) leukemia it was 2.45 µM; in the assay on SK-MEL-2 melanoma, 2.87 µM; in the assay on SK-OV-3 ovarian, 12.4 µM.

For `Cc1cc(O)c(C(=O)CC2(O)C(=O)Nc3c(Cl)cc(Cl)cc32)c(=O)o1` (stereo unspecified), the TGI was above 100 µM with 786-0 renal; above 100 µM in the assay on HOP-92 NSCLC; above 100 µM in the assay on HT29 colon; 95.1 µM in the assay with SNB-75 CNS; above 100 µM with HL-60(TB) leukemia; above 100 µM in the assay on SK-MEL-2 melanoma. In addition, the TGI in the assay with SF-539 CNS, with OVCAR-3 ovarian and in the assay on SK-OV-3 ovarian was above 100 µM throughout.

For the compound `Nc1nc(Nc2ccc3c(c2)CC[C@@H](N2CCCC2)CC3)nn1-c1cc2c(nn1)-c1ccccc1CCC2`, the GI50 in the assay with 786-0 renal was 1.55 µM; in the assay on HT29 colon, 1.08 µM; in the assay with SNB-75 CNS it was 1.22 µM; in the assay with SK-MEL-2 melanoma it was 1.93 µM; in the assay with OVCAR-3 ovarian it was 1.74 µM; in the assay with SK-OV-3 ovarian, 1.66 µM. The TGI was determined as 3.28 µM in the assay with 786-0 renal; 4.01 µM with HT29 colon; 2.48 µM with SNB-75 CNS; 3.89 µM in the assay with SK-MEL-2 melanoma; 3.36 µM in the assay with OVCAR-3 ovarian; 3.34 µM in the assay on SK-OV-3 ovarian.

Regarding `Cn1nc(-c2ccccc2)c(N=[N+]=[N-])cc1=O`, the TGI in the assay with 786-0 renal, in the assay with HT29 colon, with HL-60(TB) leukemia, with SF-539 CNS, in the assay on OVCAR-3 ovarian and in the assay on SK-OV-3 ovarian was above 100 µM each time.

As to `O=C(O)c1c2c(c(C(=O)O)c3ccccc13)-c1ccccc1-2`, the TGI with 786-0 renal is above 100 µM; with HOP-92 NSCLC, 71.9 µM; in the assay with HT29 colon it was above 100 µM; with SNB-75 CNS, above 100 µM; in the assay with HL-60(TB) leukemia, above 100 µM; in the assay with SK-MEL-2 melanoma, 97.1 µM. The TGI in the assay with SF-539 CNS came out at 85.5 µM; in the assay with OVCAR-3 ovarian, 84 µM; in the assay with SK-OV-3 ovarian, 94.8 µM.

Consider `N/N=C(\CC1OC(=O)c2ccccc21)c1ccco1` (stereo unspecified), for which the TGI in the assay with 786-0 renal is 0.164 µM; in the assay on HOP-92 NSCLC, above 100 µM; in the assay on HT29 colon, above 100 µM; in the assay with SNB-75 CNS, above 100 µM; in the assay with HL-60(TB) leukemia, above 100 µM; with SK-MEL-2 melanoma, above 100 µM. Moreover, the TGI with SF-539 CNS, in the assay with OVCAR-3 ovarian and in the assay with SK-OV-3 ovarian was above 100 µM throughout.

Regarding `COc1ccc(C(=O)C(c2ccc(OC)cc2)C2(O)C(=O)Nc3c(C)cc(Cl)cc32)cc1` (stereo unspecified), the TGI in the assay on 786-0 renal, in the assay with HOP-92 NSCLC, in the assay with HT29 colon, in the assay on SNB-75 CNS, in the assay with HL-60(TB) leukemia and in the assay on SK-MEL-2 melanoma was above 100 µM each time. For the same compound, the TGI in the assay on SF-539 CNS, in the assay with OVCAR-3 ovarian and with SK-OV-3 ovarian was above 100 µM throughout.

As for `COc1ccc(C2S/C(=C\c3cc(OC)c(OC)c(OC)c3)C(=O)N2NC(=O)Cc2ccccc2)cc1` (stereo unspecified), the TGI in the assay on 786-0 renal, in the assay with HOP-92 NSCLC, in the assay with HT29 colon, with SNB-75 CNS, in the assay on HL-60(TB) leukemia and with SK-MEL-2 melanoma was above 100 µM in each case. Further, the TGI in the assay on SF-539 CNS and with SK-OV-3 ovarian was above 100 µM throughout.

Consider `Cc1cccc(C)c1NC(=O)CCCC(=O)CC(=O)/C=C/c1ccccc1`, for which the TGI in the assay on 786-0 renal, with HOP-92 NSCLC, in the assay on HT29 colon, in the assay with SNB-75 CNS, in the assay on SK-MEL-2 melanoma and in the assay on SF-539 CNS was above 100 µM throughout. In addition, the TGI with OVCAR-3 ovarian and in the assay with SK-OV-3 ovarian was above 100 µM each time.

As for `Cc1nc2c(=O)[nH]c(=O)n(C)c2[nH]c1=O`, the TGI in the assay with 786-0 renal, with HOP-92 NSCLC, in the assay with HT29 colon, in the assay with SNB-75 CNS, in the assay with HL-60(TB) leukemia and with SK-MEL-2 melanoma was above 100 µM throughout. For the same compound, the TGI in the assay with OVCAR-3 ovarian and in the assay on SK-OV-3 ovarian was above 100 µM throughout.

Consider `c1nc2cscc2c2cscc12`, for which the TGI with 786-0 renal, in the assay on HOP-92 NSCLC, in the assay on HT29 colon, in the assay with HL-60(TB) leukemia, in the assay on SK-MEL-2 melanoma and in the assay with SF-539 CNS was above 100 µM throughout. Moreover, the TGI in the assay on OVCAR-3 ovarian and with SK-OV-3 ovarian was above 100 µM each time.

On to `COC(=O)NC/C=C\c1nc(CC/C=C\C(=O)OC2CC3CC(=O)O[C@H](/C=C/CC(C)C)C[C@H]4CCC(C)C(C[C@H](OC)CC(C2)O3)O4)co1` (stereo partly specified), for which the GI50 was below 0.01 µM in the assay with 786-0 renal; 0.742 µM in the assay with HT29 colon; 32.5 µM in the assay on SNB-75 CNS; 20.2 µM with SK-MEL-2 melanoma; below 0.01 µM in the assay with SF-539 CNS; 0.218 µM in the assay with PC-3 prostate. Moreover, the GI50 in the assay with SK-OV-3 ovarian is 63.9 µM. Further, the TGI in the assay on 786-0 renal was above 100 µM; in the assay on HT29 colon, above 100 µM; with SNB-75 CNS it was above 100 µM; in the assay on SK-MEL-2 melanoma it was above 100 µM; in the assay on SF-539 CNS it was 0.114 µM; in the assay with PC-3 prostate, above 100 µM. The compound further gave a TGI in the assay on SK-OV-3 ovarian above 100 µM.
